Experimental data taken from US20220062233A1 (The Board of Trustees of the Leland Stanford Junior …, priority 2018, published 2022).

Legend:
[1] = system: Lymphoblastoid cells (GM14044); assay: LBC cell viability (Cell Titer-Glo); assay type: cell-based, human; details: at the concentration of IC20, 3-day compound treatment
Method: Cell viability was determined by Cell Titer-Glo reagent (Promega, PRG9243). After 3-day compound treatment, 15 μl of cell suspension was taken out from plate and incubated with 10 μl of CTG reagent. The values of reaction mixture were detected by Tecan.

[2] = target: T1, interaction between Supt4h and NGN (subunit of Supt5h) (Homo sapiens, UniProt O00267+P63272); assay: Split Gaussia luciferase complementation assay (M2-8 Luciferase); assay type: cell-based; details: M2-8 cells
T1 construct: expressed in transfected cells
Procedure, shortened: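 HEK293-derived M2-8 cells inducibly express Supt4h-Gluc1 and NGN-Gluc2 fragments (stabilizing mutations) on RheoSwitch ligand addition; ligand plus compound added 24 h after plating and left 24 h. Cells frozen, lysed with 10 μg/ml native coelenterazine, 1 h room temperature dark; complemented luciferase luminescence read.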

[3] = system: M2-8 cells; assay: M2-8 Cell viability Assay; assay type: cell-based; details: at the concentration of 1000 nM
[4] = system: mutant HTT; assay: Mutant HTT assay in lymphoblastoid cells (LBC), Western blot; assay type: cell-based, human; details: read-out: LBC IC20 (nM) mHTT, 3 days compound treatment
Method: (§1) B. Mutant and Wild-Type HTT Assay in Lymphoblastoid Cells (LBC)
(§2) a. Cell Culturing and Compound Treatment
(§3) Lymphoblastoid cells derived from a Huntington's disease patient with 250 CAG repeats in the mutant HTT allele (GM14044 from Coriell Institute) were cultured in RPMI 1640 (Corning Cellgro, 10-040-CV) containing fetal bovine serum (Atlanta Biologicals, S11150). 4×10^5 cells were seeded on a 24-well plate and incubated with testing compound for 3 days. The cell suspension was then transferred to a 1.5 ml Eppendorf tube. Cells were collected by centrifugation and washed once with PBS. After all liquid was removed, the cell pellet was placed at −80° C. for at least 10 minutes. Lysis buffer [30 mM Tris-HCl (pH 8.0), 5 mM NaCl, 0.1% Triton X-100] with the proteinase inhibitor cocktail (P8340 from Sigma-Aldrich) was then added to the cells. Following centrifugation (14 k rpm for 15 min at 4° C.), the supernatant was collected. The protein concentrations were determined by BCA assay (Pierce, ThermoFisher).
(§4) Equal amounts of protein were loaded onto 4-12% gel (Invitrogen, WG1403A). After electrophoresis, the gels were transferred to nitrocellulose membranes by wet transfer at 72V for 3 hrs. […] The protein levels of mutant HTT, wild-type HTT, TBP, and tubulin were determined by immunoblotting with anti-polyQ specific antibody (clone MW1), anti-Huntingtin antibody (Abcam, ab45169), anti-TBP antibody (Sigma, T1827) and anti-alpha tubulin antibody (Sigma, T9026). Blots were imaged on a Li-Cor Odyssey infrared imager. The band intensities were determined by Li-Cor Odyssey software.

[5] = system: wild-type HTT; assay: Wild-type HTT assay in lymphoblastoid cells (LBC), Western blot; assay type: cell-based, human; details: 3 days compound treatment, read-out: LBC IC20 (nM) wtHTT
Method: as §1, §2, §3, §4

[6] = system: mutant HTT; assay: Mutant HTT assay in induced pluripotent stem cells (iPSC); assay type: cell-based, human; details: HD patient iPSCs, one day incubation, read-out: iPSC IC20 (nM) mHTT
Method: C. Mutant HTT Assay in Induced Pluripotent Stem Cells (iPSC) a. Cell Culturing and Compound Treatment
Huntington's disease patient iPSCs (ND50036 from NINDS) were detached into single cells by Accutase (25058CI from Corning), counted and plated on a 24-well plate coated with Matrigel (354277 from Corning) at density of 7,000 cells/well. After 48 hrs, compounds were added to the cell culture medium mTeSR1 (85850 from StemCell Technologies) and the cells were incubated for one day. The medium was then removed, and the cells were washed with PBS. After all liquid was removed, the plate was placed at −80° C. overnight. Lysis buffer [30 mM Tris-HCl (pH 8.0), 5 mM NaCl, 0.1% Triton X-100] with the complete proteinase inhibitor cocktail (5892791001 from Sigma-Aldrich) was then added to the cells. Cell samples were lysed on an orbital plate shaker at 4° C. at 700 rpm for 30 min. The supernatants from spinning (14 k rpm for 10 min) were collected. The protein concentrations were determined by BCA assay (23225 from Pierce, ThermoFisher). […]
b. Detection of Mutant HTT Protein
Equal amounts of protein lysate collected from each sample were added to a 96-well plate that had been coated with a human HTT specific monoclonal antibody. After washing away any unbound substances, a biotinylated anti-human mutant HTT specific detection antibody was added. Streptavidin-horseradish peroxidase was subsequently added, followed by TMB Substrate Solution, which yielded a blue product that turns yellow when the Stop Solution was added. The intensity of the color measured was in proportion to the amount of mutant HTT bound in the initial step. The mutant HTT values are then interpolated from a standard curve.

[7] = system: Huntington's disease patient iPSCs (ND50036); assay: iPSC viability at IC20; assay type: cell-based, human; details: at the concentration of IC20
[8] = system: mouse hepatocytes; assay: In vitro metabolic stability in mouse hepatocytes; assay type: in vitro ADME
Method: A. In Vitro Metabolic Stability in Hepatocyte
A compound's metabolic stability was assessed using mouse hepatocytes incubated with pre-defined concentration of test articles over several incubation period. The extent of metabolism was calculated from the disappearance of the test compound measured by liquid chromatography mass spectrometry (LC-MS), compared to that of 0-min control. After incubation, quench solutions including internal standards were added and analyzed by LC/MS. The elimination rate constant and intrinsic clearance (CLhepatocyte) values were calculated by linear regression of the compound elimination over the duration of incubation, normalized to the cell number in the given volume of incubation medium.

SMILES: C[C@H](N[C@@H]1CCCc2c1[nH]c1ccc(Br)cc21)c1ccccc1 (single isomer, unassigned) [Compound 14]
- LBC viability at IC20 [1]: * (cell viability is greater than 60% at the concentration of IC20)
- IC50 [2]: ≤ 100 nM
- M2-8 Cell viability [3]: + (cell viability is greater than 50% at the concentration of 1000 nM)
- IC20 [4]: < 100 nM
- IC20 [5]: > 1000 nM
- IC20 ([6]; class symbols): < 100 nM
- iPSC viability at IC20 [7]: + (cell viability is greater than 75% at the concentration of IC20)

SMILES: COCC(N[C@@H]1CCCc2c1[nH]c1ccc(Br)cc21)c1ccc(C(C)(C)O)cc1 (single isomer, unassigned) [Compound 52]
- LBC viability at IC20 [1]: * (cell viability is greater than 60% at the concentration of IC20)
- IC50 [2]: ≤ 100 nM
- M2-8 Cell viability [3]: + (cell viability is greater than 50% at the concentration of 1000 nM)
- IC20 [4]: < 100 nM
- IC20 [5]: > 500 nM
- IC20 ([6]; class symbols): < 100 nM
- iPSC viability at IC20 [7]: + (cell viability is greater than 75% at the concentration of IC20)

SMILES: OCc1ccc(CN[C@@H]2CCCc3c2[nH]c2ccc(Br)cc32)s1 [Compound 36, (R)-(5-(((6-bromo-2,3,4,9-tetrahydro-1H-carbazol-1-yl)amino)methyl)thiophen-2-yl)methanol]
- LBC viability at IC20 [1]: * (cell viability is greater than 60% at the concentration of IC20)
- IC50 [2]: ≤ 100 nM
- Mouse HepStability (CLhepatocyte) [8]: C (CLhepatocyte >30 μl/min/10^6cells)
- M2-8 Cell viability [3]: + (cell viability is greater than 50% at the concentration of 1000 nM)
- IC20 [4]: 101 to 300 nM
- IC20 [5]: > 1000 nM
- IC20 ([6]; class symbols): < 100 nM
- iPSC viability at IC20 [7]: + (cell viability is greater than 75% at the concentration of IC20)

SMILES: OB1OCc2cc(CN[C@@H]3CCCc4c3[nH]c3ccc(Br)cc43)ccc21 [Compound 37]
- LBC viability at IC20 [1]: * (cell viability is greater than 60% at the concentration of IC20)
- IC50 [2]: 101 to 300 nM
- Mouse HepStability (CLhepatocyte) [8]: B (CLhepatocyte 10-30 μl/min/10^6cells)
- M2-8 Cell viability [3]: + (cell viability is greater than 50% at the concentration of 1000 nM)
- IC20 [4]: 101 to 300 nM
- IC20 [5]: > 1000 nM
- IC20 ([6]; numeric bounds): > 100 nM

SMILES: CC1(C)OB(c2ccc(CN[C@@H]3CCCc4c3[nH]c3ccc(Br)cc43)cc2)OC1(C)C [Compound 43, (R)-6-bromo-N-(4-(4,4,5,5-tetramethyl-1,3,2-dioxaborolan-2-yl)benzyl)-2,3,4,9-tetrahydro-1H-carbazol-1-amine]
- LBC viability at IC20 [1]: * (cell viability is greater than 60% at the concentration of IC20)
- IC50 [2]: ≤ 100 nM
- M2-8 Cell viability [3]: + (cell viability is greater than 50% at the concentration of 1000 nM)
- IC20 [4]: 101 to 300 nM
- IC20 [5]: > 1000 nM
- IC20 ([6]; class symbols): < 100 nM
- iPSC viability at IC20 [7]: + (cell viability is greater than 75% at the concentration of IC20)

SMILES: C=Cc1ccc2[nH]c3c(c2c1)CCC[C@H]3NCc1ccccc1 [Compound 45]
- LBC viability at IC20 [1]: * (cell viability is greater than 60% at the concentration of IC20)
- IC50 [2]: ≤ 100 nM
- M2-8 Cell viability [3]: + (cell viability is greater than 50% at the concentration of 1000 nM)
- IC20 [4]: < 100 nM
- IC20 [5]: > 1000 nM
- IC20 ([6]; class symbols): < 100 nM
- iPSC viability at IC20 [7]: + (cell viability is greater than 75% at the concentration of IC20)

SMILES: COC(C)(C)c1ccc(CN[C@@H]2CCCc3c2[nH]c2ccc(Br)cc32)cc1 [Compound 48, (R)-6-bromo-N-(4-(2-methoxypropan-2-yl)benzyl)-2,3,4,9-tetrahydro-1H-carbazol-1-amine]
- LBC viability at IC20 [1]: * (cell viability is greater than 60% at the concentration of IC20)
- IC50 [2]: ≤ 100 nM
- M2-8 Cell viability [3]: + (cell viability is greater than 50% at the concentration of 1000 nM)
- IC20 [4]: < 100 nM
- IC20 [5]: > 500 nM
- IC20 ([6]; class symbols): < 100 nM
- iPSC viability at IC20 [7]: + (cell viability is greater than 75% at the concentration of IC20)

SMILES: OC1(c2ccc(CN[C@@H]3CCCc4c3[nH]c3ccc(Br)cc43)cc2)CC1 [Compound 50, (R)-1-(4-(((6-bromo-2,3,4,9-tetrahydro-1H-carbazol-1-yl)amino)methyl)phenyl) cyclopropan-1-ol]
- LBC viability at IC20 [1]: * (cell viability is greater than 60% at the concentration of IC20)
- IC50 [2]: ≤ 100 nM
- M2-8 Cell viability [3]: + (cell viability is greater than 50% at the concentration of 1000 nM)
- IC20 [4]: < 100 nM
- IC20 [5]: > 500 nM
- IC20 ([6]; class symbols): < 100 nM
- iPSC viability at IC20 [7]: + (cell viability is greater than 75% at the concentration of IC20)

SMILES: Oc1ccc(CN[C@@H]2CCCc3c2[nH]c2ccc(Br)cc32)cc1 [Compound 60, (R)-4-(((6-bromo-2,3,4,9-tetrahydro-1H-carbazol-1-yl)amino)methyl)phenol]
- LBC viability at IC20 [1]: * (cell viability is greater than 60% at the concentration of IC20)
- IC50 [2]: ≤ 100 nM
- M2-8 Cell viability [3]: + (cell viability is greater than 50% at the concentration of 1000 nM)
- IC20 [4]: 101 to 300 nM
- IC20 [5]: > 1000 nM
- IC20 ([6]; class symbols): < 100 nM
- iPSC viability at IC20 [7]: + (cell viability is greater than 75% at the concentration of IC20)

SMILES: CC(C)(O)c1ccc(CN[C@@H]2CCCc3c2[nH]c2ccc(Br)nc32)cc1 [Compound 63]
- LBC viability at IC20 [1]: * (cell viability is greater than 60% at the concentration of IC20)
- IC50 [2]: ≤ 100 nM
- M2-8 Cell viability [3]: + (cell viability is greater than 50% at the concentration of 1000 nM)
- IC20 [4]: < 100 nM
- IC20 [5]: > 500 nM
- IC20 ([6]; class symbols): < 100 nM
- iPSC viability at IC20 [7]: + (cell viability is greater than 75% at the concentration of IC20)

SMILES: OCc1ccc(CN[C@@H]2CCCc3c2[nH]c2ccc(Br)nc32)cc1 [Compound 65]
- LBC viability at IC20 [1]: * (cell viability is greater than 60% at the concentration of IC20)
- IC50 [2]: ≤ 100 nM
- M2-8 Cell viability [3]: + (cell viability is greater than 50% at the concentration of 1000 nM)
- IC20 [4]: 301 to 1000 nM
- IC20 [5]: > 1000 nM
- IC20 ([6]; class symbols): < 100 nM
- iPSC viability at IC20 [7]: + (cell viability is greater than 75% at the concentration of IC20)

SMILES: CC(C)(O)c1ccc(CN[C@@H]2CCCc3c2[nH]c2ccc(Br)nc32)s1 [Compound 66]
- LBC viability at IC20 [1]: * (cell viability is greater than 60% at the concentration of IC20)
- IC50 [2]: ≤ 100 nM
- M2-8 Cell viability [3]: + (cell viability is greater than 50% at the concentration of 1000 nM)
- IC20 [4]: < 100 nM
- IC20 [5]: > 1000 nM
- IC20 ([6]; class symbols): < 100 nM
- iPSC viability at IC20 [7]: + (cell viability is greater than 75% at the concentration of IC20)
